This is an account of results in patent publication US9850283B2, “Macrocyclic inhibitors of the PD-1/PD-L1 and CD80(B7-1)/PD-L1 protein/protein interactions” (BRISTOL-MYERS SQUIBB COMPANY, priority 2013, dated 2017).

Like-named read-outs stand apart in the source and are kept apart here. Positions of bridges follow the written chain, without caps; N, C: chain ends. Non-standard residues stand in square brackets, D forms with d. Residues, ends and D or L forms follow the SMILES beside them. ξ: configuration not given here. PEG12 = NCCOCCOCCOCCOCCOCCOCCOCCOCCOCCOCCOCCOCCC(=O)O; Phe(4-Cl) = N[C@@H](Cc1ccc(Cl)cc1)C(=O)O; Bta = N[C@@H](Cc1csc2ccccc12)C(=O)O; ξPro(4R-OH) = O=C(O)C1C[C@@H](O)CN1; Hyp = O=C(O)[C@@H]1C[C@@H](O)CN1; 4Pal = N[C@@H](Cc1ccncc1)C(=O)O; NMeNle = CCCC[C@H](NC)C(=O)O; NMeA = CN[C@@H](C)C(=O)O; Nle = CCCC[C@H](N)C(=O)O; ξP = O=C(O)C1CCCN1; Sar = CNCC(=O)O A value given as a limit tells only on which side of the number the result lay.

This assay deals with T1, Human PD-L1/PD-1 (Homo sapiens, UniProt Q9NZQ7).
T1 construct: made in house; host or cells: HEK293T
T1 sequence (Q9NZQ7 with tags, fused parts or gaps): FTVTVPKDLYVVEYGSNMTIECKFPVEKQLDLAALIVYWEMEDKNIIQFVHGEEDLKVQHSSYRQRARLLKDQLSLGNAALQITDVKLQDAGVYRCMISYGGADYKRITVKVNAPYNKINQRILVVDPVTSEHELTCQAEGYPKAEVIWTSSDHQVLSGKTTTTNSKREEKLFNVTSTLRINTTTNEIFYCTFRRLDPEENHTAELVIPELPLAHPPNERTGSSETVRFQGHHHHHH
Put plainly: HTRF PD-1-Ig/PD-L1-His binding assay (human PD-L1). The source says:
The ability of the macrocyclic peptides of the present disclosure to bind to PD-L1 was investigated using a PD-1/PD-L1 Homogenous Time-Resolved Fluorescence (HTRF) binding assay.
Homogenous Time-Resolved Fluorescence (HTRF) Assays of Binding of Soluble PD-1 to Soluble PD-L1. Soluble PD-1 and soluble PD-L1 refers to proteins with carboxyl-end truncations that remove the transmembrane-spanning regions and are fused to heterologous sequences, specifically the Fc portion of the human immunoglobuling G sequence (Ig) or the hexahistidine epitope tag (His). All binding studies were performed in an HTRF assay buffer consisting of dPBS supplemented with 0.1% (w/v) bovine serum albumin and 0.05% (v/v) Tween-20. […] PD-L1 fusion proteins from either human, cynomologous macaques, or mouse were used. HTRF detection was achieved using europium crypate-labeled anti-Ig monoclonal antibody (1 nM final) and allophycocyanin (APC) labeled anti-His monoclonal antibody (20 nM final). Antibodies were diluted in HTRF detection buffer and 5 μl was dispensed on top of binding reaction.
On the technique in general: In TR-FRET formats the signal depends on donor and acceptor labels being close together.

The mark [1] stands for this setting: Table 8, Compound No. 1 variant macrocyclic peptides, read-out: HTRF Human PD-L1/PD-1 Binding Assay IC50.

Turning to `CCCC[C@H]1C(=O)N(C)[C@@H](CCCC)C(=O)N[C@@H](CCCNC(=N)N)C(=O)N[C@H](C(=O)NCC(N)=O)CSCC(=O)N[C@@H](Cc2ccc(Cl)cc2)C(=O)N(C)[C@@H](C)C(=O)N[C@@H](CC(N)=O)C(=O)N2CCC[C@H]2C(=O)N[C@@H](Cc2cnc[nH]2)C(=O)N[C@@H](CC(C)C)C(=O)N2C[C@H](O)C[C@H]2C(=O)N[C@@H](Cc2c[nH]c3ccccc23)C(=O)N[C@@H](CO)C(=O)N[C@@H](Cc2csc3ccccc23)C(=O)N1C` [Example 1125] ({CH2CO}-[Phe(4-Cl)][NMeA]NPHL[Hyp]WS[Bta][NMeNle][NMeNle]RCG-NH2; thioether N-14), the IC50 (read-out: HTRF IC50 value) is 0.00505 µM. For `CCCC[C@H]1C(=O)N(C)[C@@H](CCCC)C(=O)N[C@@H](CCCNC(=N)N)C(=O)N[C@H](C(=O)NCC(N)=O)CSCC(=O)N[C@@H](Cc2ccccc2)C(=O)N(C)[C@@H](C)C(=O)N[C@@H](C)C(=O)N2CCCC2C(=O)N[C@@H](Cc2cnc[nH]2)C(=O)N[C@@H](CC(C)C)C(=O)N(C)CC(=O)N[C@@H](Cc2c[nH]c3ccccc23)C(=O)N[C@@H](CO)C(=O)N[C@@H](Cc2c[nH]c3ccccc23)C(=O)N1C` (some centres unmarked) [Compound No. 8] ({CH2CO}-F[NMeA]A[ξP]HL[Sar]WSW[NMeNle][NMeNle]RCG-NH2; thioether N-14), the IC50 under setting [1] came out at 0.031 µM. For `CCCC[C@H]1C(=O)N(C)[C@@H](CCCC)C(=O)N[C@@H](CC(C)C)C(=O)N[C@H](C(=O)NCC(N)=O)CSCC(=O)N[C@@H](Cc2ccccc2)C(=O)N(C)[C@@H](C)C(=O)N[C@@H](CC(N)=O)C(=O)N2CCC[C@H]2C(=O)N[C@@H](Cc2cnc[nH]2)C(=O)N[C@@H](CCCNC(=N)N)C(=O)N[C@@H](CO)C(=O)N[C@@H](Cc2c[nH]c3ccccc23)C(=O)N[C@@H](CCCNC(=N)N)C(=O)N[C@@H](Cc2c[nH]c3ccccc23)C(=O)N1C` [Compound No. 3] ({CH2CO}-F[NMeA]NPHRSWRW[NMeNle][NMeNle]LCG-NH2; thioether N-14), the IC50 (Table 6, read-out: HTRF Human PD-L1/PD-1 Binding Assay IC50) is 0.013 µM. Regarding `CCCC[C@H]1C(=O)N(C)[C@@H](CCCC)C(=O)N[C@@H](CCCNC(=N)N)C(=O)N[C@H](C(=O)NCC(N)=O)CSCC(=O)N[C@@H](Cc2ccncc2)C(=O)N(C)[C@@H](C)C(=O)N[C@@H](CC(N)=O)C(=O)N2CCC[C@H]2C(=O)N[C@@H](Cc2cnc[nH]2)C(=O)N[C@@H](CC(C)C)C(=O)N(C)CC(=O)N[C@@H](Cc2c[nH]c3ccccc23)C(=O)N[C@@H](CO)C(=O)N[C@@H](Cc2c[nH]c3ccccc23)C(=O)N1C` [Compound No. 39] ({CH2CO}-[4Pal][NMeA]NPHL[Sar]WSW[NMeNle][NMeNle]RCG-NH2; thioether N-14), the IC50 under setting [1] was determined as 0.033 µM. With `CCCC[C@H]1C(=O)N(C)[C@@H](CCCC)C(=O)N[C@@H](CCCNC(=N)N)C(=O)N[C@H](C(=O)NCC(N)=O)CSCC(=O)N[C@@H](Cc2ccccc2)C(=O)N(C)[C@@H](C)C(=O)N[C@@H](CC(N)=O)C(=O)N2C[C@H](O)CC2C(=O)N[C@@H](Cc2cnc[nH]2)C(=O)N[C@@H](CC(C)C)C(=O)N(C)CC(=O)N[C@@H](Cc2c[nH]c3ccccc23)C(=O)N[C@@H](CO)C(=O)N[C@@H](Cc2c[nH]c3ccccc23)C(=O)N1C` (stereo partly drawn) [Compound No. 47] ({CH2CO}-F[NMeA]N[ξPro(4R-OH)]HL[Sar]WSW[NMeNle][NMeNle]RCG-NH2; thioether N-14), under setting [1], the IC50 is 0.027 µM.

In the case of `CCCC[C@H]1C(=O)N(C)[C@@H](CCCC)C(=O)N[C@@H](CCCNC(=N)N)C(=O)N[C@H](C(=O)NCC(N)=O)CSCC(=O)N[C@@H](Cc2ccccc2)C(=O)N(C)[C@@H](C)C(=O)N[C@@H](CC(N)=O)C(=O)N2CCC[C@H]2C(=O)N[C@@H](Cc2c[nH]cn2)C(=O)N[C@@H](CC(C)C)C(=O)N(C)CC(=O)N[C@@H](Cc2c[nH]c3ccccc23)C(=O)N[C@H](CCC(N)=O)C(=O)N[C@@H](Cc2c[nH]c3ccccc23)C(=O)N1C` [Compound No. 59] ({CH2CO}-F[NMeA]NPHL[Sar]W[dQ]W[NMeNle][NMeNle]RCG-NH2; thioether N-14 (inferred)), under setting [1], the IC50 is > 10 µM. For `CCCC[C@H]1C(=O)N(C)CC(=O)N[C@@H](CC(=O)O)C(=O)N[C@@H](C(C)C)C(=O)N(C)[C@@H](Cc2ccccc2)C(=O)N[C@@H](Cc2ccc(O)cc2)C(=O)N(C)CC(=O)N[C@@H](Cc2c[nH]c3ccccc23)C(=O)N[C@@H](Cc2ccc(O)cc2)C(=O)N[C@@H](CC(C)C)C(=O)N[C@H](C(=O)NCC(N)=O)CSCC(=O)N[C@@H](Cc2ccccc2)C(=O)N(C)[C@@H](Cc2cnc[nH]2)C(=O)N1C` [Example 3056-B] (HELM PEPTIDE1{[O=C(C[*:3])[*:2]].F.[meH].[CCCC[C@@H](C(=O)[*:2])N(C)[*:1]].[Sar].D.V.[meF].Y.[Sar].W.Y.L.C.G.[am]}$PEPTIDE1,PEPTIDE1,1:R3-14:R3$$$V2.0), the IC50 (cluster symbol, read-out: HTRF IC50 cluster) fell in the range of 0.00676 to 0.0303 µM. For `CCCC[C@H]1C(=O)N(C)[C@@H](CCCC)C(=O)N[C@@H](CCCNC(=N)N)C(=O)N[C@H](C(=O)NCC(N)=O)CSCC(=O)N[C@@H](Cc2ccccc2)C(=O)N(C)[C@@H](C)C(=O)N[C@@H](CC(N)=O)C(=O)N2CCCC2C(=O)N[C@@H](Cc2cnc[nH]2)C(=O)N[C@@H](CC(C)C)C(=O)N(C)CC(=O)N[C@@H](C)C(=O)N[C@@H](CO)C(=O)N[C@@H](Cc2c[nH]c3ccccc23)C(=O)N1C` (some centres unmarked) [Compound No. 15] ({CH2CO}-F[NMeA]N[ξP]HL[Sar]ASW[NMeNle][NMeNle]RCG-NH2; thioether N-14), the IC50 under setting [1] is > 30 µM. As to `CCCC[C@H]1C(=O)N(C)[C@@H](CCCC)C(=O)N[C@@H](CC(C)C)C(=O)N[C@H](C(=O)NCC(=O)NCCOCCOCCOCCOCCOCCOCCOCCOCCOCCOCCOCCOCCC(N)=O)CSCC(=O)N[C@@H](Cc2ccccc2)C(=O)N(C)[C@@H](C)C(=O)N[C@@H](CC(N)=O)C(=O)N2CCC[C@H]2C(=O)N[C@@H](Cc2cnc[nH]2)C(=O)N[C@@H](Cc2cnc[nH]2)C(=O)N[C@@H](CO)C(=O)N[C@@H](Cc2c[nH]c3ccccc23)C(=O)N[C@@H](CCCNC(=N)N)C(=O)N[C@@H](Cc2c[nH]c3ccccc23)C(=O)N1C` [Compound No. 117] ({CH2CO}-F[NMeA]NPHHSWRW[NMeNle][NMeNle]LCG[PEG12]-NH2; thioether N-14), under “Table 10, Compound No. 116 variant macrocyclic peptides, read-out: HTRF Human PD-L1/PD-1 Binding Assay IC50”, the IC50 came to 0.021 µM. `CCCC[C@H]1C(=O)N(C)[C@@H](CCCC)C(=O)N[C@@H](C)C(=O)N[C@H](C(=O)NCC(N)=O)CSCC(=O)N[C@@H](Cc2ccccc2)C(=O)N(C)[C@@H](C)C(=O)N[C@@H](CC(N)=O)C(=O)N2CCC[C@H]2C(=O)N[C@@H](Cc2cnc[nH]2)C(=O)N[C@@H](CC(C)C)C(=O)N(C)CC(=O)N[C@@H](Cc2c[nH]c3ccccc23)C(=O)N[C@H](C)C(=O)N[C@@H](Cc2c[nH]c3ccccc23)C(=O)N1C` [Compound No. 60] ({CH2CO}-F[NMeA]NPHL[Sar]W[dA]W[NMeNle][NMeNle]ACG-NH2; thioether N-14): under setting [1], the IC50 turned out to be 0.043 µM. Turning to `CCCC[C@@H]1NC(=O)[C@H](Cc2c[nH]c3ccccc23)NC(=O)[C@H](CO)NC(=O)[C@H](Cc2c[nH]c3ccccc23)NC(=O)CN(C)C(=O)[C@H](CC(C)C)NC(=O)[C@H](Cc2cnc[nH]2)NC(=O)C2CCCN2C(=O)[C@H](CC(N)=O)NC(=O)[C@H](C)N(C)C(=O)[C@H](Cc2ccccc2)NC(=O)CSC[C@@H](C(=O)NCC(N)=O)NC(=O)[C@H](CCCNC(=N)N)NC(=O)[C@H](CCCC)N(C)C1=O` (some centres unmarked) [Compound No. 18] ({CH2CO}-F[NMeA]N[ξP]HL[Sar]WSW[Nle][NMeNle]RCG-NH2; thioether N-14), under setting [1], the IC50 turned out to be 0.036 µM.
